In patent US6900216B2, “Dihydroimidazo[2,1-b]thiazole and dihydro-5h-thiazolo[3,2-A]pyrimidines as antidepressant agents” (Knoll GmbH, priority 2000, dated 2005) one finds inhibition and Ki data, which are given here for 28 compounds.

The target in one assay is T1, 5-HT1A receptors (Rattus norvegicus, UniProt P19327).
T1 construct: Hippocampal tissue from the brains of male Sprague-Dawley rats; from tissue; host or cells: rat hippocampal membranes
T1 sequence (P19327 1-422): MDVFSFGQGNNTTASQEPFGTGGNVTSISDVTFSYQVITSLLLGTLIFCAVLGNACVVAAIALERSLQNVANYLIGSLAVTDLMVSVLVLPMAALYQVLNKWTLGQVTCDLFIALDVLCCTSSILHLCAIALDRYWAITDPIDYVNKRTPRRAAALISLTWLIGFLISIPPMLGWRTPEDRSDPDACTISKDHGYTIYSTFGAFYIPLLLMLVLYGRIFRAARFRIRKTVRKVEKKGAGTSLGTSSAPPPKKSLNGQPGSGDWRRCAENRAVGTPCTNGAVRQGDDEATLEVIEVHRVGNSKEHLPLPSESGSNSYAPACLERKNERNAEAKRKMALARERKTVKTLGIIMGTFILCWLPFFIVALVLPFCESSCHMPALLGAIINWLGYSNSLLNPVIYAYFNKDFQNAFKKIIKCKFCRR
In words: 5-HT1A binding: inhibition of [3H]8-OH-DPAT binding to rat hippocampal membranes. Conditions: 10^−6 M test compound, single determination, [3H]8-OH-DPAT; read-out: 5-HT1A % displacement at 10^−6 M. Here is the method:
Hippocampal tissue from the brains of male Sprague-Dawley rats (Charles River; weight range 150-250 g) was homogenised in ice-cold 50 mM Tris-HCl buffer (pH 7.7 when measured at 25° C., 1:40 w/v) and centrifuged at 40,000 g at 4° C. for 10 minutes. The pellet was rehomogenised in the same buffer, incubated at 37° C. for 10 minutes and centrifuged at 40,000 g at 4° C. for 10 minutes. The final pellet was resuspended in 50 mM Tris-HCl buffer (pH 7.7) containing 4 mM CaCl2, 0.1% L-ascorbic acid and 10 μM pargyline hydrochloride (equivalent to 6.25 mg wet weight of tissue/ml) and used immediately in the binding assay.
Membranes (400 μl; equivalent to 2.5 mg wet weight of tissue/tube) were incubated with 50 μl of [^3H]8-hydroxy-2-(dipropylamino)tetralin ([^3H]8-OH-DPAT) at a single concentration of 1 nM and 50 μl of distilled water (total binding) or 50 μl of test compound (at a single concentration of 10^−6 M or at 10 concentrations ranging from 10^−11-10^−3 M) or 50 μl of 5-HT (10 μM, non-specific binding) at 25° C. for 30 minutes. The incubation was terminated by rapid filtration under vacuum through Skatron 11734 filters using a Skatron Cell Harvester. Filters were washed with ice-cold 50 mM Tris-HCl buffer, pH 7.7 (at 25° C., wash setting 9,9,0). The scored filter paper discs were punched out into vials, scintillation fluid added and radioactivity determined by liquid scintillation counting.
For each of these tests measuring the ability of compounds of Formula I to displace standard ligands from 5-HT1A receptors and 5-hydroxytryptamine (5-HT) and noradrenaline (NA) reuptake sites and muscarinic receptors in vitro, the percentage displacement of specific binding of tritiated ligand by 10^−6 M test compound was calculated in the following way.
Firstly, specific binding of tritiated ligand in the absence (A) and presence (B) of test compound was determined:
In the absence of compound: A(dpm)=Total binding (dpm)−Non-specific binding (dpm) In the presence of compound (10^−6 M): B(dpm)=Binding at 10^−6M (dpm)−Non-specific binding (dpm)
The specific binding of tritiated ligand in the presence (B) of compound was then converted to a percentage of specific binding of tritiated ligand in the absence (A) of compound: % Specific binding at 10^−6 M=B(dpm)/A(dpm)×100
The percentage displacement of specific binding of tritiated ligand by the test compound (10^−6 M) was then obtained by subtraction of the percentage specific binding in the presence of compound from the percentage specific binding in the absence of compound, which is taken as the maximum binding and so equals 100%:
% Displacement at 10^−6 M=100−% Specific binding at 10^−6 M.
In some cases, displacement curves were then produced for compounds which displaced ≧50% of specific binding of the tritiated ligand at 10^−6 M using a range of concentrations of the compound. The Ki was then calculated by simultaneous fitting using equations derived from the Feldman equations by robust non-linear regression to data from three experiments simultaneously (De Lean et al., 1978; Munson and Rodbard, 1980; Feldman, 1992). Munson P J and Rodbard D. Ligand: a versatile computerised approach for characterisation of ligand binding systems. Anal Biochem 1980; 107: 220. Feldman HA. Mathematical theory of complex ligand binding systems at equilibrium: some methods for parameter fitting. Anal Biochem 1992: 48, 317. De Lean A, Munson P J and Rodbard D. Simultaneous analysis of families of sigmoidal curves: application to bioassay, radioligand assay, and physiological dose-response curves. Am J Physiol 1978: 235 (2), E97-E102.
The results obtained in the above tests for 5-HT1A binding and 5-HT and NA uptake and muscarinic binding for the final products of Examples 1-39 hereinafter are given in Table 1 below. Kis are in nM. % Figures are for % displacement at 10^−6 M for a single determination.
Take `OCC1=C(c2cc3ccccc3s2)N2CCN=C2S1` [Example 15, [3-(benzo[b]thiophen-2-yl)-5,6-dihydroimidazo[2,1-b]thiazol-2-yl]methanol]: the inhibition at 1 µM is 97%.

Staying with this assay, now noted: [3H]8-OH-DPAT 1 nM, rat hippocampal membranes; fit to data from three experiments.
For orientation: Ki means a measure of affinity in units of concentration, obtained from inhibition or displacement. On to `C1=C(c2cccc3sccc23)N2CCN=C2S1.Cl` [Example 2, 3-(benzo[b]thiophen-4-yl)-5,6-dihydroimidazo[2,1-b]thiazole hydrochloride], for which affinity was put at a Ki of 86 nM. This counts as double-digit nanomolar.
Consider `OCC1=C(c2cccc3sccc23)N2CCN=C2S1` [Example 3, [3-(benzo[b]thiophen-4-yl)-5,6-dihydroimidazo[2,1-b]thiazol-2-yl]methanol], for which the affinity, expressed as Ki, was 20.4 nM.
Still for that read-out and setting: for `OCC1=C(c2cc3c(Cl)cccc3s2)N2CCN=C2S1` [Example 4, [3-(4-chlorobenzo[b]thiophen-2-yl)-5,6-dihydroimidazo[2,1-b]thiazol-2-yl]methanol] the value was 2.2 nM; for `Br.CC1=C(c2cc3ccccc3s2)N2CCN=C2S1` [Example 6, 3-(benzo[b]thiophen-2-yl)-2-methyl-5,6-dihydroimidazo[2,1-b]thiazole hydrobromide], 9.7 nM; for `Br.CC1=C(c2cc3c(F)cccc3s2)N2CCN=C2S1` [Example 7, 3-(4-fluorobenzo[b]thiophen-2-yl)-2-methyl-5,6-dihydroimidazo[2,1-b]thiazole hydrobromide], 11.7 nM.
The compound `Br.CC1=C(c2cccc3sccc23)N2CCN=C2S1` [Example 8, 3-(benzo[b]thiophen-4-yl)-2-methyl-5,6-dihydroimidazo[2,1-b]thiazole hydrobromide] gave a Ki of 14.3 nM.
Still for that read-out and setting: for `CC1=C(c2cccc3sccc23)N2CCN=C2S1.Cl` [Example 9, 3-(benzo[b]thiophen-4-yl)-2-methyl-5,6-dihydroimidazo[2,1-b]thiazole hydrochloride] the value was 15 nM.
Take `Br.CC1=C(c2cc3c(Cl)cccc3s2)N2CCN=C2S1` [Example 10, 3-(4-chlorobenzo[b]thiophen-2-yl)-2-methyl-5,6-dihydroimidazo[2,1-b]thiazole hydrobromide]: the affinity corresponds to a Ki of 5.9 nM.
The same measure, in the same setting: for `Br.Oc1cccc2sc(C3=CSC4=NCCN34)cc12` [Example 12, 2-(5,6-dihydroimidazo[2,1-b]thiazol-3-yl)benzo[b]thiophen-4-ol hydrobromide] the value was 52 nM; for `Br.CCC1=C(c2cccc3sccc23)N2CCN=C2S1` [Example 13, 3-(benzo[b]thiophen-4-yl)-2-ethyl-5,6-dihydroimidazo[2,1-b]thiazole hydrobromide], 15.5 nM.
Still for that read-out and setting: for `CSC1=C(c2cc3ccccc3s2)N2CCN=C2S1` [Example 19, 3-(benzo[b]thiophen-2-yl)-2-(methylthio)-5,6-dihydroimidazo[2,1-b]thiazole] the value was 134 nM; for `Br.CC1=C(c2ccc3sccc3c2)N2CCN=C2S1` [Example 21, 3-(benzo[b]thiophen-5-yl)-2-methyl-5,6-dihydroimidazo[2,1-b]thiazole hydrobromide], 31 nM; for `CC1=C(c2cccc3ccsc23)N2CCN=C2S1.Cl` [Example 23, 3-(benzo[b]thiophen-7-yl)-2-methyl-5,6-dihydroimidazo[2,1-b]thiazole hydrochloride], 20 nM.
On to `OCC1=C(c2ccc3sccc3c2)N2CCN=C2S1` [Example 28, [3-(benzo[b]thiophen-5-yl)-5,6-dihydroimidazo[2,1-b]-thiazol-2-yl]methanol], for which the Ki came out at 38.5 nM.

The assay is the same for the next values; noted with them: read-out: 5-HT1A % displacement at 10^−6 M.
`Br.Clc1cccc2sc(C3=CSC4=NCCN34)cc12` [Example 1, 3-(4-chlorobenzo[b]thiophen-2-yl)-5,6-dihydroimidazo[2,1-b]thiazole hydrobromide]: the inhibition at 1 µM came to 60%.
Same read-out and setting: for `Cl.Fc1cccc2sc(C3=CSC4=NCCN34)cc12` [Example 5, 3-(4-fluorobenzo[b]thiophen-2-yl)-5,6-dihydroimidazo[2,1-b]thiazole hydrochloride] the value was 55%; for `Br.CCC1=C(c2cc3cc(Cl)ccc3s2)N2CCN=C2S1` [Example 11, 3-(5-chlorobenzo[b]thiophen-2-yl)-2-ethyl-5,6-dihydroimidazo[2,1-b]thiazole hydrobromide], 80%.
On the same count and under the same terms, for `Cc1cccc2sc(C3=CSC4=NCCN34)cc12.Cl` [Example 14, 3-(4-methylbenzo[b]thiophen-2-yl)-5,6-dihydroimidazo[2,1-b]thiazole hydrochloride] the value was 64%.
The same measure, in the same setting: for `Br.CC1=C(c2cc3c(C)cccc3s2)N2CCN=C2S1` [Example 16, 2-methyl-3-(4-methylbenzo[b]thiophen-2-yl)-5,6-dihydroimidazo[2,1-b]thiazole hydrobromide] the value was 97%.
As to `Br.CC1=C(c2cc3c(Cl)cccc3s2)N2CCCN=C2S1` [Example 17, 3-(4-chlorobenzo[b]thiophen-2-yl)-2-methyl-6,7-dihydro-5H-thiazolo[3,2-a]pyrimidine hydrobromide], the inhibition at 1 µM was determined as 82%.
Take `Br.CCC1=C(c2cc3c(Cl)cccc3s2)N2CCN=C2S1` [Example 18, 3-(4-chlorobenzo[b]thiophen-2-yl)-2-ethyl-5,6-dihydroimidazo[2,1-b]thiazole hydrobromide]: the inhibition at 1 µM stood at 96%.
Turning to `Br.CC1=C(c2cc3cccc(Cl)c3s2)N2CCN=C2S1` [Example 20, 3-(7-chlorobenzo[b]thiophen-2-yl)-2-methyl-5,6-dihydroimidazo[2,1-b]thiazole hydrobromide], the inhibition at 1 µM stood at 98%.
The same measure, in the same setting: for `CSC1=C(c2cccc3sccc23)N2CCN=C2S1.Cl` [Example 22, 3-(benzo[b]thiophen-4-yl)-2-(methylthio)-5,6-dihydroimidazo[2,1-b]thiazole hydrochloride] the value was 88%; for `Br.CC1=C(c2cc3c(Cl)c(Cl)ccc3s2)N2CCN=C2S1` [Example 24, 3-(4,5-dichlorobenzo[b]thiophen-2-yl)-2-methyl-5,6-dihydroimidazo[2,1-b]-thiazole hydrobromide], 76%; for `CCC1=C(c2cccc3sccc23)N2CCN=C2S1.O=C(O)/C=C/C(=O)O` [Example 25, 3-(benzo[b]thiophen-4-yl)-2-ethyl-5,6-dihydroimidazo[2,1-b]thiazole fumarate], 92%.
For the compound `Br.COc1cccc2cc(C3=C(C)SC4=NCCN43)sc12` [Example 26, 3-(7-methoxybenzo[b]thiophen-2-yl)-2-methyl-5,6-dihydroimidazo[2,1-b]thiazole hydrobromide], the inhibition at 1 µM is 90%.
As to `Br.CC1(c2cc3cc(F)ccc3s2)CSC2=NCCN21` (stereo not shown) [Example 27, 3-(5-fluorobenzo[b]thiophen-2-yl)-3-methyl-5,6-dihydroimidazo[2,1-b]thiazole hydrobromide], the inhibition at 1 µM was determined as 88%.
